In the assay the target is TBK1 (Homo sapiens (Human), UniProt Q9UHD2). Put plainly: TBK1 low ATP kinase assay (in vitro assay 1). It counts as biochemical. The following applies: in vitro assay 1, read-out: TBK1 low ATP kinase assay IC50.
TBK1, sequence (Q9UHD2 whole entry): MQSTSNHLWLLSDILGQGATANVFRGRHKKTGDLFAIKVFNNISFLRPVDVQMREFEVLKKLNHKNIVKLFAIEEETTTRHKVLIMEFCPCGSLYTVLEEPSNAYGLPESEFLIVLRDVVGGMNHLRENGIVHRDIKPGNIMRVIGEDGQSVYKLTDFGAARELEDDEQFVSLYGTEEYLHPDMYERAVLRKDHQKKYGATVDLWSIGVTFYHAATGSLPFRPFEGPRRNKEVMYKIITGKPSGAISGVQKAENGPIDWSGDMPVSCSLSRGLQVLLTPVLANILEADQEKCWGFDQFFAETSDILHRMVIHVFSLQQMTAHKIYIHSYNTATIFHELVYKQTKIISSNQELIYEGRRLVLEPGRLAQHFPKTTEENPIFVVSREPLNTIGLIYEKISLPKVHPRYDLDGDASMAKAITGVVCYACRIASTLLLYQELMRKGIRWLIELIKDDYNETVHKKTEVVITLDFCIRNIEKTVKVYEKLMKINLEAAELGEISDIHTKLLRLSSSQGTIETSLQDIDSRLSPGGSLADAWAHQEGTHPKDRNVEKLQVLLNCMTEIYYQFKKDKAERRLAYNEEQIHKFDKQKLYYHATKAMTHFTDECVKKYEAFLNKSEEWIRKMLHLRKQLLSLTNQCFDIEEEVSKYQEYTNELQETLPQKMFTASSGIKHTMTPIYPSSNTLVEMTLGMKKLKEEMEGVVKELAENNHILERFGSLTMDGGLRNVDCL
Consider `CC(c1ccnc(Nc2nc3ccc(-c4cnn(CC5CCC5)c4)c(Cl)c3[nH]2)c1)N1CCN(C(=O)OC(C)(C)C)CC1` (single isomer, unassigned) [Example 75.01, tert-butyl 4-{(1R or 1S)-1-[2-({7-chloro-6-[1-(cyclobutylmethyl)-1H-pyrazol-4-yl]-1H-benzimidazol-2-yl}amino)pyridin-4-yl]ethyl}piperazine-1-carboxylate], for which the IC50 came to 20 nM.

For `COc1cncnc1-c1ccc2nc(Nc3cc(CN4CCN(C(=O)N(C)C)CC4)ccn3)[nH]c2c1` [Example 35.01.03, 4-[(2-{[6-(5-methoxypyrimidin-4-yl)-1H-benzimidazol-2-yl]amino}pyridin-4-yl)methyl]-N,N-dimethylpiperazine-1-carboxamide], the IC50 was found to be 59.1 nM.

For the molecule `CC(c1ccnc(Nc2nc3ccc(-c4cnn(CC5CC5)c4)c(Cl)c3[nH]2)c1)N1CCN(C(=O)OC(C)(C)C)CC1` (single isomer, unassigned) [Example 122.01, tert-butyl 4-{(1R or 1S)-1-[2-({7-chloro-6-[1-(cyclopropylmethyl)-1H-pyrazol-4-yl]-1H-benzimidazol-2-yl}amino)pyridin-4-yl]ethyl}piperazine-1-carboxylate], the IC50 is 9.3 nM. The same measure for `CC(C)(C)OC(=O)N1CCN(Cc2ccnc(Nc3nc4ccc(-c5cc(OCC6CCC6)ncn5)cc4[nH]3)c2)CC1` [Example 159.01, tert-butyl 4-{[2-({6-[6-(cyclobutylmethoxy)pyrimidin-4-yl]-1H-benzimidazol-2-yl}amino)pyridin-4-yl]methyl}piperazine-1-carboxylate]: 310 nM; for `Cc1cccc(N2CCN(Cc3ccnc(Nc4nc5ccc(-c6nc(C)no6)cc5[nH]4)c3)CC2)c1` [Example 101.03, 6-(3-methyl-1,2,4-oxadiazol-5-yl)-N-(4-{[4-(3-methylphenyl)piperazin-1-yl]methyl}pyridin-2-yl)-1H-benzimidazol-2-amine]: 690 nM; for `Cc1ncnc(-c2ccc3nc(Nc4cc(CN5CCN(C(=O)C6CC6)CC5)ccn4)[nH]c3c2)c1C` [Example 32.01, cyclopropyl{4-[(2-{[6-(5,6-dimethylpyrimidin-4-yl)-1H-benzimidazol-2-yl]amino}pyridin-4-yl)methyl]piperazin-1-yl}methanone]: 951 nM. The same measure for `Cc1cc(-c2ccc3nc(Nc4cc(CN5CCN(C(=O)OC(C)(C)C)CC5)ccn4)[nH]c3c2)nc(N(C)C)n1` [Example 178.01, tert-butyl 4-{[2-({6-[2-(dimethylamino)-6-methylpyrimidin-4-yl]-1H-benzimidazol-2-yl}amino)pyridin-4-yl]methyl}piperazine-1-carboxylate]: 890 nM.

On to `CC(c1ccnc(Nc2nc3ccc(-c4cnn(CC5CC5(F)F)c4)c(F)c3[nH]2)c1)N1CCN(C(=O)C2CC2)CC1` (single isomer, unassigned) [Example 86.03, cyclopropyl{4-[(1R or 1S)-1-(2-{[6-(1-{[(1RS)-2,2-difluorocyclopropyl]methyl}-1H-pyrazol-4-yl)-7-fluoro-1H-benzimidazol-2-yl]amino}pyridin-4-yl)ethyl]piperazin-1-yl}methanone], for which the IC50 amounted to 1.5 nM. Then `CC(C)(C)OC(=O)N1CCN(Cc2ccnc(Nc3nc4ccc(-c5ccncc5C#N)cc4[nH]3)c2)CC1` [Example 133.01, tert-butyl 4-[(2-{[6-(3-cyanopyridin-4-yl)-1H-benzimidazol-2-yl]amino}pyridin-4-yl)methyl]piperazine-1-carboxylate], with 280 nM; and `Cc1cc(-c2ccc3nc(Nc4cc(C(C)N5CCN(C(=O)CC(F)(F)F)CC5)ccn4)[nH]c3c2F)ncn1` (single isomer, unassigned) [Example 172.02, 3,3,3-trifluoro-1-{4-[(1R or 1S)-1-(2-{[7-fluoro-6-(6-methylpyrimidin-4-yl)-1H-benzimidazol-2-yl]amino}pyridin-4-yl)ethyl)piperazin-1-yl}propan-1-one], with 12.1 nM; and `CN(c1cc(-c2ccc3nc(Nc4cc(CN5CCN(C(=O)OC(C)(C)C)CC5)ccn4)[nH]c3c2)ncn1)C1CC1` [Example 157.01, tert-butyl 4-({2-[(6-{6-[cyclopropyl(methyl)amino]pyrimidin-4-yl}-1H-benzimidazol-2-yl)amino]pyridin-4-yl}methyl)piperazine-1-carboxylate], with 25 nM. The same measure for `CCNc1cc(-c2ccc3nc(Nc4cc(CN5CCN(C(=O)CC(F)(F)F)CC5)ccn4)[nH]c3c2)ncn1` [Example 149.02, 1-(4-{[2-({6-[6-(ethylamino)pyrimidin-4-yl]-1H-benzimidazol-2-yl}amino)pyridin-4-yl]methyl}piperazin-1-yl)-3,3,3-trifluoropropan-1-one]: 2 nM. The same measure for `CC(c1ccnc(Nc2nc3ccc(-c4cc(C(F)F)ncn4)cc3[nH]2)c1)N1CCN(C(=O)C2CC2)CC1` (single isomer, unassigned) [Example 174.03, cyclopropyl(4-{(1R or 1S)-1-[2-({6-[6-(difluoromethyl)pyrimidin-4-yl]-1H-benzimidazol-2-yl}amino)pyridin-4-yl]ethyl}piperazin-1-yl)methanone]: 3.26 nM; for `COc1cnc(OCC2CC2)nc1-c1ccc2nc(Nc3cc(CN4CCN(C(=O)CC(F)(F)F)CC4)ccn3)[nH]c2c1` [Example 64.01.03, 1-(4-{[2-({6-[2-(cyclopropylmethoxy)-5-methoxypyrimidin-4-yl]-1H-benzimidazol-2-yl}amino)pyridin-4-yl]methyl}piperazin-1-yl)-3,3,3-trifluoropropan-1-one]: 47 nM.

In the case of `Cc1noc(-c2ccc3nc(Nc4cc(CN5CCN(c6ccccn6)CC5)ccn4)[nH]c3c2)n1` [Example 101.15, 6-(3-methyl-1,2,4-oxadiazol-5-yl)-N-(4-{[4-(pyridin-2-yl)piperazin-1-yl]methyl}pyridin-2-yl)-1H-benzimidazol-2-amine], the IC50 turned out to be 210 nM.

In the case of `CCOc1cnc(C)cc1-c1ccc2nc(Nc3cc(CN4CCN(C(=O)CC(F)(F)F)CC4)ccn3)[nH]c2c1` [Example 09.01, 1-{4-[(2-{[6-(5-ethoxy-2-methylpyridin-4-yl)-1H-benzimidazol-2-yl]amino}pyridin-4-yl)methyl]piperazin-1-yl}-3,3,3-trifluoropropan-1-one], the concentration for half-maximal inhibition (IC50) turned out to be 251 nM. Then `CCN(CC)c1cc(-c2ccc3nc(Nc4cc(CN5CCN(C(=O)OC(C)(C)C)CC5)ccn4)[nH]c3c2)ncn1` [Example 155.01, tert-butyl 4-{[2-({6-[6-(diethylamino)pyrimidin-4-yl]-1H-benzimidazol-2-yl}amino)pyridin-4-yl]methyl}piperazine-1-carboxylate], with 36 nM; and `CCOc1nccc(-c2ccc3nc(Nc4cc(C(C)N5CCN(C(=O)CC(F)(F)F)CC5)ccn4)[nH]c3c2)n1` (racemic) [Example 26.02.01, (rac)-1-{4-[1-(2-{[6-(2-ethoxypyrimidin-4-yl)-1H-benzimidazol-2-yl]amino}pyridin-4-yl)ethyl]piperazin-1-yl}-3,3,3-trifluoropropan-1-one], with 4.68 nM; and `Cn1cc(-c2ccc3nc(Nc4cc(CN5CCN(C(=O)CC6CC6)CC5)ccn4)[nH]c3c2)cn1` [Example 37.02, 2-cyclopropyl-1-{4-[(2-{[6-(1-methyl-1H-pyrazol-4-yl)-1H-benzimidazol-2-yl]amino}pyridin-4-yl)methyl]piperazin-1-yl}ethanone], with 62.5 nM. Then `COc1c(NC2CCC2)ncnc1-c1ccc2nc(Nc3cc(C(C)N4CCN(C(=O)CC(F)(F)F)CC4)ccn3)[nH]c2c1` (single isomer, unassigned) [Example 114.02, 1-(4-{(1R or 1S)-1-[2-({6-[6-(cyclobutylamino)-5-methoxypyrimidin-4-yl]-1H-benzimidazol-2-yl}amino)pyridin-4-yl]ethyl}piperazin-1-yl)-3,3,3-trifluoropropan-1-one], with 8.27 nM; and `Cc1cc(-c2ccc3nc(Nc4cc(C(C)N5CCN(C(=O)C6CC6)CC5)ccn4)[nH]c3c2)ncn1` (single isomer, unassigned) [Example 30.03.03.B, cyclopropyl{4-[(1S or 1R)-1-(2-{[6-(6-methylpyrimidin-4-yl)-1H-benzimidazol-2-yl]amino}pyridin-4-yl)ethyl]piperazin-1-yl}methanone], with 14 nM. The same measure for `COc1cnccc1-c1ccc2nc(Nc3cc(CN4CCN(C(=O)C5CCC5)CC4)ccn3)[nH]c2c1OCC(C)C` [Example 50.03, cyclobutyl{4-[(2-{[6-(3-methoxypyridin-4-yl)-7-(2-methylpropoxy)-1H-benzimidazol-2-yl]amino}pyridin-4-yl)methyl]piperazin-1-yl}methanone]: 645 nM; for `COc1c(C)ncnc1-c1ccc2nc(Nc3cc(C(C)N4CCN(C(=O)C5(C(F)(F)F)CC5)CC4)ccn3)[nH]c2c1` (centres unmarked) [Example 83.05, {4-[(1R or IS)-1-(2-{[6-(5-methoxy-6-methylpyrimidin-4-yl)-1H-benzimidazol-2-yl]amino}pyridin-4-yl)ethyl]piperazin-1-yl}[1-(trifluoromethyl)cyclopropyl]methanone]: 2.9 nM; for `CC(c1ccnc(Nc2nc3ccc(-c4cnn(CC5(Cl)CC5)c4)cc3[nH]2)c1)N1CCN(C(=O)CC(F)(F)F)CC1` (single isomer, unassigned) [Example 69.02, 1-{4-[(1R or 1S)-1-{2-[(6-{1-[(1-chlorocyclopropyl)methyl]-1H-pyrazol-4-yl}-1H-benzimidazol-2-yl)amino]pyridin-4-yl}ethyl]piperazin-1-yl}-3,3,3-trifluoropropan-1-one]: 0.64 nM. Turning to `O=C(C1CCC1)N1CCN(Cc2ccnc(Nc3nc4ccc(-c5cnn(CC(F)(F)F)c5)cc4[nH]3)c2)CC1` [Example 58.01.01, cyclobutyl(4-{[2-({6-[1-(2,2,2-trifluoroethyl)-1H-pyrazol-4-yl]-1H-benzimidazol-2-yl}amino)pyridin-4-yl]methyl}piperazin-1-yl)methanone], the IC50 stood at 12.8 nM. In the case of `CCN(C)c1cc(-c2ccc3nc(Nc4cc(CN5CCN(C(=O)C6CC6)CC5)ccn4)[nH]c3c2)ncn1` [Example 148.03, cyclopropyl[4-({2-[(6-{6-[ethyl(methyl)amino]pyrimidin-4-yl}-1H-benzimidazol-2-yl)amino]pyridin-4-yl}methyl)piperazin-1-yl]methanone], the IC50 came out at 4.8 nM.

The term IC50 denotes the concentration at which inhibition is half-maximal.
